Assay results taken from the supplement of paper PMC10307832.

Key:
Experiment in all cases: relative viability (nuclei count vs DMSO), 5 days (fraction); higher = more cells survive
Crenolanib + Lapatinib = compound: CC1(COc2ccc3c(c2)ncn3-c2ccc3cccc(N4CCC(N)CC4)c3n2)COC1 [Crenolanib] + CS(=O)(=O)CCNCc1ccc(-c2ccc3ncnc(Nc4ccc(OCc5cccc(F)c5)c(Cl)c4)c3c2)o1 [Lapatinib] (partner 2 µM)
Method in brief: (§1)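 Lung cancer cell lines, seeded in 1536-well plates, were treated the following day by pin tool with a single drug or with five library-drug doses (not always all listed) in √10 steps on top of a fixed anchor-drug dose. Cells were fixed and nuclei stained in one step after 5 days, and nuclei were counted. Relative viability is the nuclei count for treated wells divided by that for vehicle wells, reported as medians of duplicate plates.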

Tivantinib + Vorinostat = compound: O=C1NC(=O)[C@@H](c2cn3c4c(cccc24)CCC3)[C@@H]1c1c[nH]c2ccccc12 [Tivantinib] + O=C(CCCCCCC(=O)Nc1ccccc1)NO [Vorinostat] (partner 1 µM)
Method in brief: as §1

Tivantinib + Trametinib = compound: O=C1NC(=O)[C@@H](c2cn3c4c(cccc24)CCC3)[C@@H]1c1c[nH]c2ccccc12 [Tivantinib] + CC(=O)Nc1cccc(-n2c(=O)n(C3CC3)c(=O)c3c(Nc4ccc(I)cc4F)n(C)c(=O)c(C)c32)c1 [Trametinib] (partner 0.02 µM)
Method in brief: as §1

Crenolanib + Linsitinib = compound: CC1(COc2ccc3c(c2)ncn3-c2ccc3cccc(N4CCC(N)CC4)c3n2)COC1 [Crenolanib] + C[C@]1(O)C[C@@H](c2nc(-c3ccc4ccc(-c5ccccc5)nc4c3)c3c(N)nccn32)C1 [Linsitinib] (partner 1 µM)
Method in brief: as §1

Cell Line UMC-11 has a relative viability (Crenolanib + Lapatinib; first compound 0.01 µM) of 0.955, a relative viability (Crenolanib + Lapatinib; first compound 0.03162 µM) of 1.04 and a relative viability (Crenolanib + Lapatinib; first compound 0.1 µM) of 0.895. For the same cell line, the relative viability (Crenolanib + Lapatinib; first compound 0.3162 µM) was 0.985, the relative viability (Crenolanib + Lapatinib; first compound 1 µM) was 0.95 and the relative viability (Tivantinib + Vorinostat; first compound 0.01 µM) was 0.383. For the same cell line, the relative viability (Tivantinib + Vorinostat; first compound 0.03162 µM) was 0.392, the relative viability (Tivantinib + Vorinostat; first compound 0.1 µM) was 0.328 and the relative viability (Tivantinib + Vorinostat; first compound 0.3162 µM) was 0.385. The relative viability (Tivantinib + Trametinib; first compound 0.01 µM) was 0.678, the relative viability (Tivantinib + Trametinib; first compound 0.03162 µM) was 0.451 and the relative viability (Tivantinib + Trametinib; first compound 0.1 µM) was 0.666. The relative viability (Tivantinib + Trametinib; first compound 0.3162 µM) was 0.693, the relative viability (Crenolanib + Linsitinib; first compound 0.01 µM) was 1.01 and the relative viability (Crenolanib + Linsitinib; first compound 0.03162 µM) was 0.997. The relative viability (Crenolanib + Linsitinib; first compound 0.1 µM) was 0.978, the relative viability (Crenolanib + Linsitinib; first compound 0.3162 µM) was 1.14 and the relative viability (Crenolanib + Linsitinib; first compound 1 µM) was 0.952.
